Assay results published in US4188398A, “Method for treating epilepsy” (priority 1978, dated 1980).
“Also recorded” adds a separate entry of the source.

Legend:
[1] = tested on: lysin locus of actinomyces; assay: Mutagenicity, lysin locus of actinomyces; format: cell-based; settings: same doses
Arecoline tremor test = assay: Arecoline tremor test; design: species or system mice and rats; settings: in vivo
Bacillus coli = format: cell-based
animal or person = assay: animal or person
Procedure: The general effect of the proposed preparation was tested on white mice, rats and rabbits.

[2] = Daily administration for eight weeks, rabbits (chronic toxicity); format: in vivo; settings: 200 mg/kg intraperitoneally once a day
Procedure: (§1) The effects of daily administrations of the proposed anticonvulsant, carried out over prolonged periods of time, were studied on rabbits and rats.
A 2-percent colloidal solution of the proposed preparation was introduced intraperitoneally in doses of 200 mg/kg to five rabbits. This was done once a day for eight weeks. The same amounts of a colloidal solution of a carboxymethyl cellulose were administered intraperitoneally to three control rabbits.
(§2) Every day the animals' weight and body temperature were measured, and their general state was assessed. Once a week, a general blood analysis was made, the urine was analyzed for protein, blood and biliary pigments. Upon the end of the experiment, the animals were killed (the rabbits were destroyed by air embolism; the rats were decapitated). The liver, heart, kidneys, spleen, lungs and different parts of the small intestine and stomach of the freshly killed animals were taken for pathomorphological investigation.

[3] = Daily administration for eight weeks, rats (chronic toxicity); format: in vivo; settings: 400 mg/kg per os once a day
Procedure: as §1
A colloidal solution of the proposed antispasmodic was administered per os in doses of 400 mg/kg to six rats. The drug was introduced through a metal probe once a day for eight weeks.
as §2

[4] = Single versus multiple administration, antagonism to corazol (addiction / habit forming); format: in vivo
[5] = Electroencephalographic study of threshold and afteraction discharges, curarized animals; format: in vivo, cats and rabbits; settings: 150 to 200 mg/kg
Procedure: The central action of the preparation was studied electroencephalographically. The acute experiments were conducted on curarized cats and rabbits and were aimed at investigating the effects of the preparation upon the threshold magnitude and the duration of afteraction discharges of the dorsal hippocamp, […] nuclei of the thalamus and the motor zone of the cortex.

[6] = Duration of Nembutal-induced sleep; format: in vivo; settings: P = 0.05; Nembutal 40 mg/kg; proposed preparation 100 mg/kg, zarontin 150 mg/kg, milontin 100 mg/kg
Description: (§3) Nembutal was used as a trunk narcotic, and urethane as a cortical narcotic.

actinomyces = assay: Mutagenicity, Air-Shibalsky technique, actinomyces; format: cell-based
[7] = Neurotoxicity: rightening, gait, stance, muscle tone and equilibrium tests; format: in vivo; settings: P = 0.05
Procedure: The neurotoxicity levels were determined by conducting rightening, gait, stance, muscle tone and equilibrium tests.

[8] = Maximum electroshock test
Procedure: (§4) The anticonvulsant action of the proposed preparation was tested on mice weighing 19 to 25 g and rats weighing 120 to 150 g by conducting maximum electroshock, corazol, strychnine, camphor, nicotine and arecoline tests.

[9] = Acute toxicity, single intraperitoneal administration, 48 hours (Litchfield and Wilcockson); format: in vivo, white mice
Procedure: The acute toxicity of the proposed preparation was tested on white mice weighing 19 to 20 g, by single intraperitoneal administrations of 1.5- and 10-percent colloidal solutions of the anticonvulsant in a 0.5-percent solution of carboxymethyl cellulose. The animals were observed during 48 hours. In order to establish the median lethal dose (LD50), the experimental data was statistically processed using the Litchfield and Wilcockson techniques. Milontin and zarontin were analyzed in the same way.

[10] = Duration of activity, maximum electroshock test; format: in vivo, white mice
Procedure: Corazol convulsions and maximum electroshock tests were carried out to determine the duration of the preparation's activity. Two series of experiments were made on white mice weighing 20 to 25 g. In the first series, the preparation was introduced intraperitoneally, whereas in the second series it was introduced into the stomach through a metal probe.
The anticonvulsive action of effective doses of the proposed preparation (200 mg/kg were introduced intraperitoneally, and 400 mg/kg were introduced per os) was tested every 30 minutes on separate groups of mice, each including 100 animals. The tests were continued until complete termination of the anticonvulsive effect.

[11] = Nicotine-induced convulsions; format: in vivo, mice
Procedure: as §4

[12] = Duration of urethane-induced sleep; format: in vivo
Description: as §3

[13] = Teratogenic and embryotoxic tests (A. M. Chernukh's method); format: in vivo, mongrel white female rats; settings: 400 mg/kg per os, rats
Procedure: Teratogenic and embryotoxic tests of the proposed preparation were carried out by using A. M. Chernukh's method on 35 mongrel white female rats weighing 150 to 200 g. The preparation was introduced per os in a dose of 400 mg/kg.
On the twentieth day of pregnancy, all the animals were decapitated.

[14] = General effect on behaviour of rabbits; format: in vivo; settings: 500 to 600 mg/kg

Procedure for Camphor convulsions test: as §4
Procedure for Corazol convulsion test: as §4

CC(C)Oc1ccc(C2CC(=O)NC2=O)cc1 (stereo not drawn) [proposed preparation, α-/para-isopropoxyphenyl/succinimide]
mutagenous effect [1]: weak mutagenous effect | revertants induced [1]: no more than 41 revertants | revertants relative to control [1]: thrice as great as that of the control | effect on arecoline tremor (Arecoline tremor test): does not hinder the development of arecoline tremor | mutagenous effect (Bacillus coli): no mutagenous effect | minimal effective dose (animal or person; Mus musculus, ip, read-out: least dose to produce a noticeable effect on the animals' behavior): 200 mg/kg | effect on general state of the animals per os versus intraperitoneal (animal or person; per os, animals (mice, rats, rabbits)): not as marked as in the case of intraperitoneal administration | dose inducing lying position and sleep (animal or person; white mice, intraperitoneal): more than 1,000 milligrams per kilogram of weight | organ changes, macroscopic and microscopic histochemical investigation [2]: no changes were observed | weight, body temperature, general state, blood and urine composition [2]: no changes were registered in the weight, body temperature and general state of the animals | organ changes, macroscopic and microscopic histochemical investigation [3]: no changes were observed | weight, body temperature, general state, blood and urine composition [3]: no changes were registered in the weight, body temperature and general state of the animals | antistrychnine effect, ranking of the three drugs (in words): the most pronounced | ED50 (strychnine) (strychnine): 110 mg/kg | protection index I=TD50/ED50, Strychnine (strychnine): 6.55 | protection index PI (mean lethal dose / mean effective dose), Strychnine (strychnine): 19.55 | habit forming properties [4]: devoid of habit forming properties | afteraction discharges of the thalamic nuclei [5]: prevented afteraction discharges of the thalamic nuclei | convulsion threshold of the hippocamp [5]: slightly raised the convulsion threshold of the hippocamp | period of discharges in the cortex [5]: considerably reduces the period of discharges in the cortex | spread of convulsive activity to other brain structures [5]: prevents the spread of the convulsive activity to other brain structures | stimulation threshold of the motor zone of the cortex [5]: does not raise the stimulation threshold of the motor zone of the cortex | Average Duration of Nembutal-Induced Sleep [6]: 99 ± 67.6 min | mutagenous effect (actinomyces): no mutagenous effect | ED50 (Camphor convulsions test; Mus musculus, read-out: ED50 (camphor)): 90 mg/kg | protection index I=TD50/ED50, Camphor (Camphor convulsions test; camphor): 8 | protection index PI (mean lethal dose / mean effective dose), Camphor (Camphor convulsions test; camphor): 23.9 | TD50 (mean neurotoxic dose) ([7]; listed as Preparation according to invention): 720(588 to 883) mg/kg | TD50 ([7]; in vivo, read-out: TD50 (mean neurotoxic dose)): 720 mg/kg | ED50 ([8]; Mus musculus, read-out: ED50 (Electroshock)): 77 mg/kg | protection index I=TD50/ED50, Electroshock ([8]; electroshock): 9.35 | protection index PI (mean lethal dose / mean effective dose), Electroshock ([8]; electroshock): 28 | anticonvulsant activity in maximum electroshock test ([8]; in words): anticonvulsant activity was only exhibited by the proposed preparation and milontin | relative toxicity ([9]; compared with milontin and zarontin): the least toxic of all; also recorded: more than two times less toxic than milontin; also recorded: one and half times less toxic than zarontin | LD50 ([9]; intraperitoneal, white mice, P=0.05, 2880 min, listed as Preparation in accordance with invention): 2,150 (1,930 to 2,390) mg/kg | LD50 at 48 h ([9]; mouse, in vivo, ip, intraperitoneal, white mice, P=0.05): 2150 mg/kg | time for which effect is maintained at its peak ([10]; maximum electroshock): seven | duration of effect, oral versus intraperitoneal ([10]; maximum electroshock test): lasts longer in the case of oral administration | effect on intensity of nicotine-induced convulsions ([11]; 200 mg/kg, mice): markedly reduced the intensity of convulsions | effect on nicotine-induced convulsions and tremor ([11]; 300 mg/kg): effectively prevents convulsions and tremor | ED50 ([11]; Mus musculus): 190 mg/kg | Average Duration of Urethane-Induced Sleep ([12]; P = 0.05, urethane 1,000 mg/kg, proposed preparation 100 mg/kg, zarontin 150 mg/kg, milontin 100 mg/kg): 3.2 ± 1.3 min | effect upon the duration of urethane-induced sleep ([12]; in words): no effect upon the duration of urethane-induced sleep | development of pregnancy [13]: the pregnancy developed normally | abnormalities in embryos' growth, internal organs and skeletons ([13]; twentieth day of pregnancy): did not reveal any abnormalities in their growth | ED50 (Corazol convulsion test; Mus musculus, read-out: ED50 (corazol)): 86 mg/kg | protection index I=TD50/ED50, Corazol (Corazol convulsion test; corazol): 8.38 | protection index PI (mean lethal dose / mean effective dose), Corazol (Corazol convulsion test; corazol): 25 | effect on behaviour of rabbits [14]: no conspicuous changes in the behaviour
